Results on 9 compounds are retold here after PubChem BioAssay (NCI).

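Step 1: Grow cells in 96-well plates. Step 2: Expose to compound for 48 hours at 5 concentrations. Step 3: Interpolate endpoints linearly; if unreached, use highest concentration. The concentration for 50% growth inhibition is given as GI50. TGI: total growth inhibition.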 Where only a bound is given, the exact number is not on record here.

Among the test systems are SN12C renal; HOP-62 NSCLC; K-562 leukemia; SNB-75 CNS; HL-60(TB) leukemia; IGROV1 ovarian; SF-268 CNS; OVCAR-3 ovarian; ACHN renal; MALME-3M melanoma.
Holding throughout (assay): NCI anticancer screen, dose series, 48 h

With `CCCCC#Cc1c(I)n(C2OC(CO[Si](C)(C)C(C)(C)C)C3OC(C)(C)OC32)c(=O)[nH]c1=O` (stereo not given), the GI50 was 10.2 µM in the assay on SN12C renal; 20 µM in the assay with HOP-62 NSCLC; 2.02 µM in the assay on K-562 leukemia; 12.1 µM in the assay with SNB-75 CNS; 1.52 µM with HL-60(TB) leukemia; 3.32 µM in the assay with IGROV1 ovarian. The GI50 in the assay with SF-268 CNS is 10.3 µM; with OVCAR-3 ovarian, 1.53 µM; with ACHN renal, 2.29 µM; in the assay with MALME-3M melanoma, 5.45 µM. The TGI was 22.2 µM with SN12C renal; 34.7 µM with HOP-62 NSCLC; 5.02 µM in the assay with K-562 leukemia; 24.9 µM in the assay with SNB-75 CNS; 4.14 µM in the assay on HL-60(TB) leukemia; 15.4 µM with IGROV1 ovarian. Besides, the TGI was 22.4 µM in the assay on SF-268 CNS, 2.86 µM with OVCAR-3 ovarian, 7.52 µM in the assay on ACHN renal and 24.8 µM with MALME-3M melanoma.
On to `Cc1cc(C)c(-c2noc(-c3ccc(Cl)cc3)c2C2=NCCN2)c(C)c1`, for which the TGI with SN12C renal came out at 45.5 µM; with HOP-62 NSCLC it was 62 µM; in the assay with K-562 leukemia it was 37.4 µM; in the assay on SNB-75 CNS, 37.3 µM; in the assay with HL-60(TB) leukemia, 46.4 µM; with IGROV1 ovarian, 76.7 µM. In addition, the TGI is 37.4 µM with SF-268 CNS, 44.7 µM with OVCAR-3 ovarian, above 100 µM in the assay with ACHN renal and 37.7 µM in the assay on MALME-3M melanoma.
For `CCCCc1c2c(nc3c1CCc1cc(C=O)c(N)nc1-3)/C(=C/c1ccccc1)CCC2`, the TGI with SN12C renal, in the assay with HOP-62 NSCLC, in the assay on K-562 leukemia, in the assay on SNB-75 CNS, with HL-60(TB) leukemia and in the assay on IGROV1 ovarian was above 100 µM each time. The TGI in the assay with SF-268 CNS, with OVCAR-3 ovarian, in the assay with ACHN renal and in the assay on MALME-3M melanoma was above 100 µM in each case.
For the compound `Cc1cccc2c1NC(c1c(C)[nH]c3ccccc13)C2` (stereo not given), the TGI in the assay on SN12C renal, in the assay with HOP-62 NSCLC, in the assay with K-562 leukemia, with SNB-75 CNS, in the assay with HL-60(TB) leukemia and in the assay on IGROV1 ovarian was above 100 µM each time. For the same compound, the TGI with SF-268 CNS, in the assay with OVCAR-3 ovarian, in the assay on ACHN renal and in the assay with MALME-3M melanoma was above 100 µM each time.
`Cn1c(=O)c(C2c3ccccc3Oc3c2c(=O)n(C)c2ccccc32)c(O)c2ccccc21` (stereo not given): the TGI is above 100 µM in the assay with SN12C renal; above 100 µM in the assay on HOP-62 NSCLC; above 100 µM with K-562 leukemia; above 100 µM with SNB-75 CNS; 79.2 µM with HL-60(TB) leukemia; above 100 µM in the assay with IGROV1 ovarian. For the same compound, the TGI with SF-268 CNS, in the assay with OVCAR-3 ovarian, in the assay on ACHN renal and in the assay with MALME-3M melanoma was above 100 µM throughout.
`CC(=O)c1c[nH]c2ccc(-c3ccnc(Nc4ccc(NC(=O)c5cccc(F)c5)c(CN5CCOCC5)c4)n3)cc12`: the GI50 was 0.153 µM in the assay with SN12C renal; 0.221 µM in the assay on HOP-62 NSCLC; 0.303 µM with K-562 leukemia; 0.042 µM in the assay with SNB-75 CNS; 0.242 µM in the assay on HL-60(TB) leukemia; 0.151 µM in the assay on IGROV1 ovarian. Also, the GI50 in the assay on SF-268 CNS is 0.225 µM; in the assay on OVCAR-3 ovarian, 0.0955 µM; in the assay with ACHN renal it was 0.0845 µM; in the assay with MALME-3M melanoma it was 0.254 µM. Further, the TGI in the assay on SN12C renal is above 23.3 µM; in the assay on HOP-62 NSCLC it was 18.7 µM; in the assay with K-562 leukemia, above 100 µM; with SNB-75 CNS it was 0.342 µM; in the assay with HL-60(TB) leukemia, 0.928 µM; with IGROV1 ovarian, 1.69 µM. Besides, the TGI with SF-268 CNS is 2.49 µM; with OVCAR-3 ovarian, 0.932 µM; with ACHN renal it was 3.1 µM; in the assay on MALME-3M melanoma, 0.749 µM.
Turning to `NS(=O)(=O)OC[C@H]1O[C@@H](n2cnc3c(N[C@H]4CCc5ccccc54)ncnc32)[C@H](O)[C@@H]1O`, the GI50 in the assay with SN12C renal is 0.231 µM; in the assay on HOP-62 NSCLC it was 0.0569 µM; in the assay on K-562 leukemia it was 0.0369 µM; in the assay on SNB-75 CNS, 0.358 µM; with HL-60(TB) leukemia, 0.0482 µM; in the assay with IGROV1 ovarian, 0.174 µM. Moreover, the GI50 in the assay on SF-268 CNS was 0.122 µM; with OVCAR-3 ovarian, 0.0409 µM; in the assay on ACHN renal, 0.167 µM; with MALME-3M melanoma, 0.195 µM. Moreover, the TGI is 1.3 µM in the assay on SN12C renal; 0.485 µM with HOP-62 NSCLC; above 100 µM with K-562 leukemia; 1 µM in the assay on SNB-75 CNS; 1.44 µM in the assay with HL-60(TB) leukemia; 1 µM in the assay with IGROV1 ovarian. Besides, the TGI is 0.449 µM in the assay with SF-268 CNS, 0.145 µM with OVCAR-3 ovarian, 0.57 µM with ACHN renal and 0.447 µM with MALME-3M melanoma.
Turning to `CN1CCN(c2nc(NCCNc3ccnc4cc(Cl)ccc34)c3ccccc3n2)CC1`, the GI50 was 2.03 µM with SN12C renal; 2.73 µM with HOP-62 NSCLC; 0.721 µM in the assay on K-562 leukemia; 1.84 µM in the assay with SNB-75 CNS; 1.74 µM in the assay with HL-60(TB) leukemia; 2.51 µM in the assay on IGROV1 ovarian. The GI50 was 2.72 µM in the assay with SF-268 CNS, 2.21 µM in the assay on OVCAR-3 ovarian, 2.85 µM in the assay with ACHN renal and 2 µM with MALME-3M melanoma. Also, the TGI worked out at 5.6 µM in the assay with SN12C renal; 14.2 µM in the assay on HOP-62 NSCLC; 3.82 µM with K-562 leukemia; 4.96 µM with SNB-75 CNS; 3.5 µM in the assay on HL-60(TB) leukemia; 7.94 µM in the assay on IGROV1 ovarian. Besides, the TGI stood at 13.1 µM in the assay on SF-268 CNS, 7.44 µM in the assay on OVCAR-3 ovarian, 8.27 µM in the assay with ACHN renal and 3.76 µM with MALME-3M melanoma.
As for `N=C(N)c1ccc(-c2ccc(-c3ccco3)o2)cc1`, the GI50 in the assay with SN12C renal is 5.97 µM; with HOP-62 NSCLC, 10.4 µM; in the assay with K-562 leukemia, 2.66 µM; with SNB-75 CNS, 10.7 µM; in the assay on HL-60(TB) leukemia, 2.19 µM; in the assay on IGROV1 ovarian, 4.38 µM. The GI50 was 4.85 µM in the assay with SF-268 CNS, 9.77 µM in the assay with OVCAR-3 ovarian, 4.24 µM in the assay with ACHN renal and 2.15 µM in the assay on MALME-3M melanoma. Besides, the TGI was determined as 21.2 µM in the assay on SN12C renal; 23 µM with HOP-62 NSCLC; 10.4 µM in the assay with K-562 leukemia; 23.2 µM with SNB-75 CNS; 5.53 µM in the assay on HL-60(TB) leukemia; 16.7 µM in the assay on IGROV1 ovarian. Moreover, the TGI in the assay on SF-268 CNS is 18.7 µM; in the assay with OVCAR-3 ovarian, 22.1 µM; in the assay with ACHN renal, 15.3 µM; in the assay with MALME-3M melanoma, 4.12 µM.
